Among the test systems are CAKI-1; MCF7; UACC-62; SW-620; RPMI-8226; SF-268; SF-539; K562; UO-31; HOP-62; SK-MEL-28; ACHN; LOX IMVI; SR; A549; MDA-MB-231; SK-MEL-2; CCRF-CEM; DU-145.
Experiment in all cases: NCI tumour cell line growth inhibition, 48 h

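Cells were grown in 96-well plates and exposed to each compound for 48 hours at five concentrations; endpoints were interpolated linearly between bracketing concentrations, or set to the highest concentration if not reached. GI50: concentration for 50% inhibition of growth.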 The source made the active and inactive calls. Rule as the data show it: active = GI50 up to about 1.1 µM and inactive = higher.

As for `C=CCOC(=O)CC[C@H](NC(=O)[C@@H](CCC(F)(F)F)Cc1ccc(O)cc1)C(=O)OCC=C`, the GI50 is > 100 µM (inactive) with CAKI-1; 20.7 µM (inactive) in the experiment with MCF7; 34 µM (inactive) in the experiment with UACC-62; > 100 µM (inactive) with SW-620; 30.4 µM (inactive) with RPMI-8226; 41 µM (inactive) in the experiment on SF-268. In addition, the GI50 with SF-539 is 90.2 µM (inactive); with K562 it was 41.5 µM (inactive); in the experiment on UO-31 it was > 100 µM (inactive); in the experiment with HOP-62, > 100 µM (inactive); with SK-MEL-28, 23.7 µM (inactive); in the experiment with ACHN it was 47.9 µM (inactive). Also, the GI50 in the experiment on LOX IMVI was 55.2 µM (inactive); in the experiment with SR it was 32.5 µM (inactive); in the experiment on A549 it was > 100 µM (inactive).
For `Cc1cc(=O)oc2c3c(ccc12)OC(c1ccc(Br)cc1)CC3=O` (stereo not given), the GI50 was 12.4 µM (inactive) with CAKI-1; 4.27 µM (inactive) in the experiment with MCF7; 7.98 µM (inactive) in the experiment on UACC-62; 4.2 µM (inactive) in the experiment with SW-620; 4.04 µM (inactive) in the experiment on RPMI-8226; 7.35 µM (inactive) in the experiment on MDA-MB-231. Also, the GI50 is 10.2 µM (inactive) with SF-268; 9.98 µM (inactive) in the experiment with SF-539; 2.83 µM (inactive) in the experiment with K562; 10.3 µM (inactive) in the experiment on UO-31; 7.69 µM (inactive) in the experiment on HOP-62; 8.67 µM (inactive) in the experiment on SK-MEL-28. Further, the GI50 with ACHN is 11.7 µM (inactive); with SK-MEL-2 it was 11.3 µM (inactive); in the experiment with LOX IMVI, 2.98 µM (inactive); in the experiment with SR, 3.23 µM (inactive); in the experiment with CCRF-CEM, 2.21 µM (inactive); in the experiment with A549, 16.7 µM (inactive).
Take `O=C1C2=C(c3ccccc31)C(c1ccccc1Cl)N1C(=O)CCSC1=N2` (stereo not given): the GI50 with CAKI-1 is > 100 µM (inactive); in the experiment on UACC-62, 76.7 µM (inactive); in the experiment with SW-620, > 100 µM (inactive); in the experiment with RPMI-8226, 81.5 µM (inactive); with SF-268, > 100 µM (inactive); in the experiment with SF-539, > 100 µM (inactive). The GI50 in the experiment with K562 was > 100 µM (inactive); with UO-31, 58.1 µM (inactive); in the experiment with HOP-62 it was > 100 µM (inactive); in the experiment with SK-MEL-28, > 100 µM (inactive); in the experiment with ACHN, > 100 µM (inactive); in the experiment with SK-MEL-2, > 100 µM (inactive). In addition, the GI50 in the experiment with CCRF-CEM and in the experiment on A549 was > 100 µM (inactive) each time.
On to `O=C1C=C2CC[C@H]3[C@@H]4CC[C@H](Oc5c6ccccc6nc6ccccc56)[C@H]4CC[C@@H]3[C@H]2CC1`, for which the GI50 is 36.7 µM (inactive) in the experiment with CAKI-1; 16.7 µM (inactive) in the experiment on UACC-62; 51.8 µM (inactive) in the experiment on SW-620; 87.7 µM (inactive) with DU-145; 41.3 µM (inactive) in the experiment on MDA-MB-231; 84.9 µM (inactive) in the experiment on SF-268. Also, the GI50 in the experiment with SF-539 was 52.2 µM (inactive); with K562, 32.7 µM (inactive); in the experiment on HOP-62 it was 57.1 µM (inactive); in the experiment on SK-MEL-28 it was 48.9 µM (inactive); with ACHN, 48.4 µM (inactive); with SK-MEL-2, 40 µM (inactive). Further, the GI50 in the experiment on LOX IMVI is 27.8 µM (inactive); in the experiment on CCRF-CEM it was 18.5 µM (inactive); in the experiment on A549 it was 54.1 µM (inactive).
Turning to `COc1ccc(-c2nc3ncccn3c2-c2ccc(SC)cc2)cc1`, the GI50 in the experiment with CAKI-1 is 0.74 µM (active); in the experiment on UACC-62, 0.916 µM (active); in the experiment with SW-620, 1.48 µM (inactive); with RPMI-8226, 2.48 µM (inactive); in the experiment with MDA-MB-231, 4.24 µM (inactive); in the experiment on SF-268 it was 0.418 µM (active). Besides, the GI50 in the experiment on SF-539 is 1.83 µM (inactive); in the experiment on K562, 0.869 µM (active); in the experiment with UO-31, 4.46 µM (inactive); in the experiment with HOP-62, 5.64 µM (inactive); with SK-MEL-28, 16.9 µM (inactive); with ACHN, 7.57 µM (inactive). The GI50 in the experiment on SK-MEL-2 is 1.32 µM (inactive); in the experiment on LOX IMVI it was 2.14 µM (inactive); with SR, 0.507 µM (active); with CCRF-CEM it was 2.28 µM (inactive); in the experiment with A549, 2.88 µM (inactive).
Take `CCOC(=O)C/N=c1\nc(SC)sc2c(C(=O)OCC)nc(Sc3ccccc3)n12`: the GI50 with CAKI-1 is 13.4 µM (inactive); in the experiment on UACC-62, > 100 µM (inactive); in the experiment with SW-620, > 100 µM (inactive); in the experiment with RPMI-8226, 8.41 µM (inactive); in the experiment on SF-268, > 100 µM (inactive); with K562, 16.1 µM (inactive). Also, the GI50 is 17.8 µM (inactive) in the experiment with UO-31; 52.1 µM (inactive) in the experiment on HOP-62; 58.9 µM (inactive) with SK-MEL-2; 6.76 µM (inactive) in the experiment on LOX IMVI; 4.74 µM (inactive) in the experiment with SR; 8.13 µM (inactive) with CCRF-CEM. Besides, the GI50 in the experiment on A549 was > 10 µM (inactive).
For the compound `Cc1[nH]n(-c2nc3c(c(=O)[nH]2)CCCC3)c(=O)c1CCO`, the GI50 in the experiment with CAKI-1 is 60 µM (inactive); in the experiment on MCF7 it was > 100 µM (inactive); in the experiment with UACC-62, > 100 µM (inactive); in the experiment with SW-620, > 100 µM (inactive); in the experiment on DU-145, > 100 µM (inactive); in the experiment with MDA-MB-231, > 100 µM (inactive). Besides, the GI50 in the experiment on SF-268, in the experiment on SF-539, in the experiment with K562, with UO-31, in the experiment with HOP-62 and in the experiment with SK-MEL-28 was > 100 µM (inactive) each time. The GI50 with ACHN, with SK-MEL-2, in the experiment with LOX IMVI, in the experiment with CCRF-CEM and with A549 was > 100 µM (inactive) in each case.
For the compound `CC1=C(C)C(=O)c2c(cc3c4ccccc4ccn23)C1=O`, the GI50 with UACC-62, with SW-620, in the experiment on RPMI-8226, with SF-539, in the experiment on K562 and in the experiment with UO-31 was > 100 µM (inactive) each time. Also, the GI50 with HOP-62 was > 100 µM (inactive); with SK-MEL-28 it was > 100 µM (inactive); with ACHN, > 100 µM (inactive); in the experiment on SK-MEL-2 it was > 100 µM (inactive); in the experiment with LOX IMVI it was > 100 µM (inactive); in the experiment on CCRF-CEM, > 10 µM (inactive). Besides, in the experiment with A549, the GI50 is > 100 µM (inactive).
In the case of `Cc1nc2c(=O)[nH]c3ccc(Cl)cc3c2o1`, the GI50 with CAKI-1, in the experiment on MCF7, in the experiment on UACC-62, with SW-620, with RPMI-8226 and in the experiment with MDA-MB-231 was > 100 µM (inactive) in each case. Further, the GI50 with SF-268, in the experiment on SF-539, with K562, with UO-31, with HOP-62 and with ACHN was > 100 µM (inactive) each time. For the same compound, the GI50 in the experiment with SK-MEL-2, with LOX IMVI, in the experiment with SR, in the experiment on CCRF-CEM and with A549 was > 100 µM (inactive) in each case.
`COc1cc(/C=C2\N=C(c3ccccc3)N(c3cc4cc(Sc5ccccc5)ccc4[nH]3)C2=O)ccc1O`: the GI50 with CAKI-1 is 11.1 µM (inactive); with MCF7 it was 0.255 µM (active); with UACC-62, 0.188 µM (active); with SW-620, 3.58 µM (inactive); with DU-145, 11.7 µM (inactive); in the experiment on SF-539, 5.14 µM (inactive). Besides, the GI50 was 1.97 µM (inactive) in the experiment with K562; 15.6 µM (inactive) in the experiment on UO-31; > 50 µM (inactive) with SK-MEL-28; 7.46 µM (inactive) with ACHN; 29.9 µM (inactive) in the experiment with LOX IMVI; 2.12 µM (inactive) in the experiment on SR. Moreover, the GI50 is 2.69 µM (inactive) with CCRF-CEM and > 50 µM (inactive) with A549.
In the case of `CN1CCN([C@H]2C[C@H]3[C@@H]4CC=C5C[C@@H](O)CC[C@]5(C)[C@H]4CC[C@]3(C)C2=O)CC1`, the GI50 was > 100 µM (inactive) in the experiment on CAKI-1; > 100 µM (inactive) in the experiment with MCF7; > 100 µM (inactive) in the experiment on UACC-62; > 100 µM (inactive) with SW-620; 91 µM (inactive) with RPMI-8226; > 100 µM (inactive) in the experiment with MDA-MB-231. Also, the GI50 in the experiment with SF-268 was > 100 µM (inactive); with SF-539, 62.5 µM (inactive); in the experiment with K562 it was 34.3 µM (inactive); in the experiment on UO-31, > 100 µM (inactive); in the experiment with HOP-62, > 100 µM (inactive); with SK-MEL-28, > 100 µM (inactive). The GI50 with ACHN was > 100 µM (inactive); with SK-MEL-2, > 100 µM (inactive); in the experiment on LOX IMVI, > 100 µM (inactive); in the experiment on SR it was 29.4 µM (inactive); in the experiment with CCRF-CEM, > 100 µM (inactive); with A549, > 100 µM (inactive).
For `O=C(COc1ccc(OCC(=O)N2C(=O)CC(=O)N(c3ccccc3)C2=S)cc1)N1C(=O)CC(=O)N(c2ccccc2)C1=S`, the GI50 in the experiment with CAKI-1 was 0.851 µM (active); in the experiment with MCF7, 45.9 µM (inactive); in the experiment on UACC-62 it was 32.2 µM (inactive); in the experiment with SW-620, 72.1 µM (inactive); in the experiment with RPMI-8226, 31.1 µM (inactive); in the experiment on DU-145, 55.7 µM (inactive). Moreover, the GI50 with MDA-MB-231 is 46.8 µM (inactive); in the experiment on SF-268 it was 43.2 µM (inactive); with K562 it was 52.1 µM (inactive); with UO-31 it was 61.4 µM (inactive); in the experiment on SK-MEL-28, 87.3 µM (inactive); with ACHN, 66.7 µM (inactive). The GI50 is 43.4 µM (inactive) with SK-MEL-2 and 40.4 µM (inactive) in the experiment on A549.

For the origin of these results see ChEMBL document CHEMBL1201862, “PubChem BioAssay data set” (2004).
